Test results from patent US6812232B2, “Heterocycle substituted purine derivatives as potent antiproliferative agents” (AMR Technology, Inc., priority 2001, dated 2004).
Where “and” joins values, the source holds several entries; their conditions need not be identical. Identical values can stand only once.

Experiments:
CyclinB/cdk1 = molecular target: T1, CyclinB/cdk1 (Homo sapiens, UniProt P06493); test: CyclinB/cdk1 protein kinase assay (histone H1 phosphorylation); format: biochemical; settings: Table 2; complexes isolated from HeLa cells, histone H1, 15 μM ATP; replicate experimental results; read-out: IC50 CyclinB/cdkl
T1 construct: Monoclonal antibody against cyclinB (GNS1) is added to the supernatant; endogenous in cells
T1 sequence (P06493 whole entry): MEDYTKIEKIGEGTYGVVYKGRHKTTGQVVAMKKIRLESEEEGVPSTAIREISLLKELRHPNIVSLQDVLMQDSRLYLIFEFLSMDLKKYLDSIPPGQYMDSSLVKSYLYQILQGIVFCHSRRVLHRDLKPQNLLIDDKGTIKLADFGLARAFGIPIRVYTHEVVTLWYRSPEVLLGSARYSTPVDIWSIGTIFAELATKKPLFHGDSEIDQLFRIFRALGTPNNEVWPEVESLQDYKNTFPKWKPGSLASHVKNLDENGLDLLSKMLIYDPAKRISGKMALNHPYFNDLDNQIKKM
T1 sequence (P14635 whole entry partner): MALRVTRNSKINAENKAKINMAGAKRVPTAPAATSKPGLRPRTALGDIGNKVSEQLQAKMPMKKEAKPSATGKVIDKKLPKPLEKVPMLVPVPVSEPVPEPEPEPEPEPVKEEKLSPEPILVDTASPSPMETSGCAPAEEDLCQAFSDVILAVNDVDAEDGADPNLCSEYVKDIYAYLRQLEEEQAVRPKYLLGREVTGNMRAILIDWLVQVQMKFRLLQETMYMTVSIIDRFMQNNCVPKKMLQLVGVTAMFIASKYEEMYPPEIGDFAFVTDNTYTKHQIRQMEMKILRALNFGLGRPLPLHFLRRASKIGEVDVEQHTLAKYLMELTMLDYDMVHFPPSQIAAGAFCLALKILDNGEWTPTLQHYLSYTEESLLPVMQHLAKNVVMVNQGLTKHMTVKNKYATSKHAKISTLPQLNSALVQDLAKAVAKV
Experimental: HeLa cells are blocked at the G1/S border by culturing in the presence of 2 mM thymidine for 20 h. The cells are then rinsed 3× in phosphate buffered saline and resuspended in regular medium. After 4 h of culture, the mitotic blocker, nocodazole is added to a final concentration of 75 ng/ml. […] The lysate is then clarified by centrifugation at 10,000×g for 10 min. The supernatant is collected and diluted 1:5 with Lysis Buffer. Monoclonal antibody against cyclinB (GNS1) is added to the supernatant to a final concentration of 5 μg/ml and shaken at 4° C. for 2 h. The immune complexes are then collected by the addition of 200 μl of protein agarose beads for 1 h. The beads are washed 4× in lysis buffer and 1× in kinase assay buffer.
Duplicate assays were performed at each concentration.

HeLa S-3 cells = test: Inhibition of cell growth (SRB), HeLa; format: cell-based, human; settings: Table 2, 2 days of treatment, replicate experimental results
Experimental: D. Measuring the Inhibition of Cell Growth.
Growth inhibition (GI50) values were measured with HeLa S-3 cells selected for growth on plastic. […] One day later, a control plate was fixed by addition of TCA to 5%. After five rinses with tap water the plate was air dried and stored at 4° C. Test compounds were added to the remaining plates at 10-fold dilutions between 0.01 and 100 μM. Two days later all plates were fixed as described above. Cells were then stained by the addition of 100 […] of 0.4% sulforhodamine B (SRB) in 1% acetic acid for 30 min at 4° C. Wells were then quickly rinsed 5× with acetic acid (1%) and allowed to air dry. The SRB was then solubilized by the addition of 100 μl per well of unbuffered 10 mM Tris base. Dye was quantified by measuring absorbance at 490 nm on a Molecular Devices kinetic microplate reader. Growth at each inhibitor concentration relative to the untreated control was calculated according to the following equation: percent growth=100×(T−To)/(C−To), where T was the average optical density (OD) of the test wells after 2 days of treatment, To was the average OD of the wells in the control plate on day 0 and C was the average OD of untreated wells. Plots of percent growth versus inhibitor concentration were used to determine the GI50.

| SMILES | GI50 (HeLa S-3 cells) | melting point [°C] | other results |
| --- | --- | --- | --- |
| CC[C@H](CO)Nc1nc(NCc2ccc(-c3cccc([N+](=O)[O-])c3)cc2)c2ncn(C(C)C)c2n1 [Compound 48] |  |  | IC50 (CyclinB/cdk1): > 10000 nM |
| CC(C)n1cnc2c(NCc3ccc(-c4ccsc4)cc3)nc(N[C@H]3CC[C@H](NC(=O)OC(C)(C)C)CC3)nc21 [Compound 130] | > 10000 nM |  |  |
| CC(C)n1cnc2c(NCc3cccc(-c4ccsc4)c3)nc(N[C@H]3CC[C@H](N)CC3)nc21 [Compound 131] | 2000 nM | 211 to 216 | GI50 (HeLa S-3 cells; Homo sapiens, HeLa S3, 48 h): 3000 nM |
| CC(=O)N[C@H]1CC[C@H](Nc2nc(NCc3cccc(-c4ccsc4)c3)c3ncn(C(C)C)c3n2)CC1 [Compound 132] | 3000 nM | 209 to 211 | GI50 (HeLa S-3 cells; Homo sapiens, HeLa S3, 48 h): 4000 nM |
| CC(C)n1cnc2c(NCc3ccc(-c4ccccc4)cc3)nc(N[C@H]3CC[C@H](NC(=O)OC(C)(C)C)CC3)nc21 [Compound 133] | > 10000 nM |  |  |
| CC(=O)NC1CCC(Nc2nc(NCc3ccc(-c4cccc(C)c4)cc3)c3ncn(C(C)C)c3n2)CC1 (centres unmarked) [Compound 178] | 400 nM and 200 nM |  |  |
| COc1cccc(-c2ccc(CNc3nc(NC4CCC(NC(C)=O)CC4)nc4c3ncn4C(C)C)cc2)c1 (centres unmarked) [Compound 180] | 400 nM and 300 nM |  |  |
| CC(=O)N[C@H]1CC[C@H](Nc2nc(NCc3ccc(-c4cccc(F)c4)nc3)c3ncn(C(C)C)c3n2)CC1 [Compound 188] |  | 199 to 230 |  |
| CC(=O)N[C@H]1CC[C@H](Nc2nc(NCc3ccc(-c4ccco4)nc3)c3ncn(C(C)C)c3n2)CC1 [Compound 206] |  | 216 to 218 |  |
| CC(=O)NCCNc1nc(NCc2ccc(-c3ccccc3)cc2)c2ncn(C(C)C)c2n1 [Compound 208] | 4000 nM and 3000 nM |  |  |
| CC(C)n1cnc2c(NCc3ccc(-c4ccccc4)cn3)nc(N[C@H]3CC[C@H](N)CC3)nc21 [Compound 229] |  |  | GI50 (HeLa S-3 cells; Homo sapiens, HeLa S3, 48 h): 400 nM |
| COC(=O)NC1CCC(Nc2nc(NCc3ccc(-c4ccccc4)cc3)c3ncn(C(C)C)c3n2)CC1 (centres unmarked) [Compound 259] | 300 nM and 400 nM and 700 nM |  |  |
| CC(C)n1cnc2c(NCc3ccc(-c4ccccc4)cc3)nc(NC3CCC(NC(=O)C4CC4)CC3)nc21 (centres unmarked) [Compound 261] | 300 nM |  |  |
